Experimental findings from patent publication US20130066055A1, “NEW BINDER-DRUG CONJUGATES (ADCS) AND USE THEREOF” (Bayer Intellectual Property GmbH, priority 2011, published 2013) are described below.

One may read the Papp B→A as the apparent permeability from the basolateral to the apical side of a cell layer.

Where a name gives a salt, the structure may show the parent alone. Square brackets hold non-standard residues; d marks the D form. Peptide text beside a SMILES is read from it. * marks the point of attachment. X2 = CC(C)[C@@H](C(=O)*)N(C)CCCCCCN1C(=O)CC(SC[C@H](N)C(=O)O)C1=O; X1 = CC(C)[C@@H](C(=O)*)N(C)CCCCCC(=O)NCCCC[C@H](N)C(=O)O; Dolaproine = CO[C@@H]([C@@H]1CCCN1)[C@@H](C)C(=O)O; Dil = CC[C@H](C)[C@H](NC)[C@@H](CC(=O)O)OC; X5 = C[C@@H](N*)[C@@H](O)c1ccccc1; Oxazinan2yl(1,2) = C1CCN(*)OC1; NMeV = CN[C@H](C(=O)O)C(C)C

One data set deals with tubulin. Put plainly: Fluorescence-based microtubule (tubulin) polymerization assay. Type of data set: biochemical. The procedure: Tubulin polymerization was investigated using the “Fluorescence-based Microtubule Polymerisation Assay Kit” from Cytoskeleton (Denver, Colo., USA; order number: BK011). With this assay, GTP is added to unpolymerized tubulin, allowing polymerization to take place spontaneously. The assay is based on the binding of the fluorophore 4′,6-di-amidino-2-phenylindole (DAPI) to tubulin. Free and bound DAPI can be differentiated on the basis of different emission spectra.
[…] In addition to the buffer control, paclitaxel, with a polymerization-increasing effect, and vinblastin, with a polymerization inhibiting effect, were run additionally as assay controls. Measurement was carried out using 96-well plates with a half base area. The kinetics of the tubulin polymerization were monitored in a Fluorimeter at 37° C. for 1 hour. The excitation wavelength was 355 nm, and emission was monitored at 460 nm. For the region of linear increase within the first 10 minutes, a calculation was made of the change in fluorescence per minute (ΔF/min), which represents the polymerization rate of the microtubuli. The potency of the test substances was quantified on the basis of their respective reduction of the polymerization rate.

Data set [1] can be described thus: Caco-2 flux assay for cell permeability. The following applies: human, Caco-2 cells, basal to apical. Type of data set: in vitro ADME. On the procedure: (§1) The cell permeability of a substance can be investigated by means of in vitro testing in a flux assay using Caco-2 cells [M. D. Troutman and D. R. Thakker, Pharm. Res. 20 (8), 1210-1224 (2003)]. For this purpose, the cells were cultured for 15-16 days on 24-well filter plates. For the determination of permeation, the respective working example was applied in a HEPES buffer to the cells either apically (A) or basally (B) and incubated for 2 hours. After 0 hours and after 2 hours, samples were taken from the cis and trans compartments. The samples were separated by HPLC (Agilent 1200, Böblingen, Germany) using reverse phase columns. The HPLC system was coupled via a Turbo Ion Spray Interface to a Triple Quadropol mass spectrometer API 4000 (Applied Biosystems Applera, Darmstadt, Germany). The permeability was evaluated on the basis of a Papp value, which was calculated using the formula published by Schwab et al. [D. Schwab et al., J. Med. Chem. 46, 1716-1725 (2003)].

Data set [2] concerns the target T1, P-glycoprotein (P-gp, ABCB1) (Homo sapiens, UniProt P08183).
T1 construct: expressed in transfected cells; host or cells: LLC-PK1 (pig kidney) cells transfected with human MDR1 (L-MDR1 cells)
Briefly: Flux assay in P-gp overexpressing L-MDR1 cells. Conditions: LLC-PK1, basal to apical. It counts as in vitro ADME. On the procedure: The substrate properties of a substance for P-gp (ABCB1) were determined by means of a flux assay using LLC-PK1 cells which overexpress P-gp (L-MDR1 cells) [A. H. Schinkel et al., J. Clin. Invest. 96, 1698-1705 (1995)]. For this purpose, the LLC-PK1 cells or L-MDR1 cells were cultured on 96-well filter plates for 3-4 days. For determination of the permeation, the respective test substance, alone or in the presence of an inhibitor (such as Ivermectin or Verapamil, for example), was applied in a HEPES buffer to the cells either apically (A) or basally (B) and incubated for 2 hours. After 0 hours and after 2 hours, samples were taken from the cis and trans compartments. The samples were separated by HPLC using reverse phase columns. The HPLC system was coupled via a Turbo Ion Spray Interface to a Triple Quadropol mass spectrometer API 3000 (Applied Biosystems Applera, Darmstadt, Germany). The permeability was evaluated on the basis of a Papp value which was calculated using the formula published by Schwab et al. [D. Schwab et al., J. Med. Chem. 46, 1716-1725 (2003)].

Another data set relates to Caco-2 cells. Briefly: Caco-2 flux assay for cell permeability. The following applies: basal to apical, 2 hours. It counts as in vitro ADME. On the procedure:
as §1
Background: Passage across Caco-2 layers is used to estimate intestinal permeability.

T1 sequence (P08183 whole entry): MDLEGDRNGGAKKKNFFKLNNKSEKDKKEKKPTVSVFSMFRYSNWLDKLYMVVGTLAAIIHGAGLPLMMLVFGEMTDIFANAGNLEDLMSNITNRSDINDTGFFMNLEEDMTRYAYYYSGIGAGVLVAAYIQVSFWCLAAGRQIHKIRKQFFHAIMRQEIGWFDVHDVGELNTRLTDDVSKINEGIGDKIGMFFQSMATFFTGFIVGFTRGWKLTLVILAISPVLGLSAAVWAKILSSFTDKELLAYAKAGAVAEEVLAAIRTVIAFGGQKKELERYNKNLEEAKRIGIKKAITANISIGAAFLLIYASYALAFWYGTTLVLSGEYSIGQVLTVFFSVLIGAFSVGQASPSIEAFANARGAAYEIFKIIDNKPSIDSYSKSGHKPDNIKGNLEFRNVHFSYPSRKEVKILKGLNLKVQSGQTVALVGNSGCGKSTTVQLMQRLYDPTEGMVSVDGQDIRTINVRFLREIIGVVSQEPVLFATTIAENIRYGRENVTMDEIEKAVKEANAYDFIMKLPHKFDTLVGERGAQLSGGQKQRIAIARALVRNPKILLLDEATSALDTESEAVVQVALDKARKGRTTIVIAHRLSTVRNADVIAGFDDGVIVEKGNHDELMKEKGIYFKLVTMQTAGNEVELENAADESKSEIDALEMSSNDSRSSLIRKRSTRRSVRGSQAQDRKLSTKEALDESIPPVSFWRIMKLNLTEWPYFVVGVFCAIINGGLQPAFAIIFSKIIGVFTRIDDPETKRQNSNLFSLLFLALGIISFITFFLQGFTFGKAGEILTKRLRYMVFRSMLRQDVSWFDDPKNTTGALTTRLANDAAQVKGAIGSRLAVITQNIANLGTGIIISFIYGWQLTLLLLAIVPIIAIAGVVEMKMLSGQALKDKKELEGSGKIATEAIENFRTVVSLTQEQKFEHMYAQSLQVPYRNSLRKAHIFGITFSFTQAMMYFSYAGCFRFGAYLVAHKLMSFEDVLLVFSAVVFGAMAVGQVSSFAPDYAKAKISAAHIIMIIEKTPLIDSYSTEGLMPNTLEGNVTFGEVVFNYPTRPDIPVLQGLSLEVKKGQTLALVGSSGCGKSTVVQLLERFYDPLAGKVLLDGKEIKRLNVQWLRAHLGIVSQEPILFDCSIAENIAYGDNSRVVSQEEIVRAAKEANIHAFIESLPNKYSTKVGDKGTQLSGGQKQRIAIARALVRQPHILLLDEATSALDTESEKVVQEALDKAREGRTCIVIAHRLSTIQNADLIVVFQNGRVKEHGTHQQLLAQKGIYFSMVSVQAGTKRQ

As to `CC[C@H](C)[C@@H]([C@@H](CC(=O)N1CCC[C@H]1[C@H](OC)[C@@H](C)C(=O)N[C@@H](Cc1c[nH]c2ccccc12)C(=O)O)OC)N(C)C(=O)[C@@H](NC(=O)[C@H](C(C)C)N(C)CCCC(=O)NNC(=O)CCCCCN1C(=O)CC(SC[C@H](N)C(=O)O)C1=O)C(C)C` (stereo partly drawn) [Example 72, N-(4-{2-[6-(3-{[(2R)-2-Amino-2-carboxyethyl]sulphanyl}-2,5-dioxopyrrolidin-1-yl)hexanoyl]hydrazino}-4-oxobutyl)-N-methyl-L-valyl-N-[(3R,4S,5S)-1-{(2S)-2-[(1R,2R)-3-{[(1S)-1-carboxy-2-(1H-indol-3-yl)ethyl]amino}-1-methoxy-2-methyl-3-oxopropyl]pyrrolidin-1-yl}-3-methoxy-5-methyl-1-oxoheptan-4-yl]-N-methyl-L-valinamide], the “Tubulin polymerization in the presence of toxophore in [%]. Tubulin polymerization rate at 1 μM MMAF set at 100%” value (“Tubulin polymerization in the presence … at 100%” for short) with tubulin (toxophore 1 μM) was 109%; in the data set with tubulin (toxophore 10 μM), 27%. The values for the Papp B→A at 2 h in data set [1] and in data set [2] were 0.16 ×10⁻⁶ cm/s and 0.36 ×10⁻⁶ cm/s, respectively.
As for `CC[C@H](C)[C@@H]([C@@H](CC(=O)N1CCC[C@H]1[C@H](OC)[C@@H](C)C(=O)N[C@@H](Cc1ccccc1)C(=O)O)OC)N(C)C(=O)[C@@H](NC(=O)[C@@H](NC)C(C)C)C(C)C` [MMAF, Monomethylauristatin F, reference compound] (H-[NMeV]V[Dil][Dolaproine]F-OH), the “inhibition of tubulin polymerization” value in the data set with tubulin was “inhibit tubulin polymerization as a function of their concentration”. Besides, the “Tubulin polymerization in the presence … at 100%” value with tubulin (toxophore 1 μM) is on record as 100%; in the data set with tubulin (toxophore 10 μM) it was 34%. Moreover, the “Papp (B-A)” value in the data set on Caco-2 cells was determined as 7.3 ×10⁻⁶ cm/s.
As to `CC[C@H](C)[C@@H]([C@@H](CC(=O)N1CCC[C@H]1[C@H](OC)[C@@H](C)C(=O)N[C@H](C)[C@@H](O)c1ccccc1)OC)N(C)C(=O)[C@@H](NC(=O)[C@@H](NC)C(C)C)C(C)C` [MMAE, monomethylauristatin E, reference compound] (H-[NMeV]V[Dil][Dolaproine]-X5), the “Papp (B-A)” value in the data set with Caco-2 cells worked out at 7.3 ×10⁻⁶ cm/s.
As for `CC[C@H](C)[C@@H]([C@@H](CC(=O)N1CCC[C@H]1[C@H](OC)[C@@H](C)C(=O)N[C@@H](Cc1c[nH]c2ccccc12)C(=O)N1CCCCO1)OC)N(C)C(=O)[C@@H](NC(=O)[C@H](C(C)C)N(C)CCCCCC(=O)NCCCC[C@H](N)C(=O)O)C(C)C` [Example 115, N-(6-{[(5S)-5-Amino-5-carboxypentyl]amino}-6-oxohexyl)-N-methyl-L-valyl-N-[(3R,4S,5S)-1-{(2S)-2-[(1R,2R)-3-{[(2S)-3-(1H-indol-3-yl)-1-(1,2-oxazinan-2-yl)-1-oxopropan-2-yl]amino}-1-methoxy-2-methyl-3-oxopropyl]pyrrolidin-1-yl}-3-methoxy-5-methyl-1-oxoheptan-4-yl]-N-methyl-L-valinamide trifluoroacetate] (X1-V[Dil][Dolaproine]W-{Oxazinan2yl(1,2)}), the “Tubulin polymerization in the presence … at 100%” value in the data set on tubulin (toxophore 1 μM) stood at 45%; in the data set on tubulin (toxophore 10 μM) it was 1%. The values for the Papp B→A at 2 h in data set [1] and in data set [2] were 0.2 ×10⁻⁶ cm/s and 0.6 ×10⁻⁶ cm/s, respectively.
Taken in the same sequence, the figures for `CC[C@H](C)[C@@H]([C@@H](CC(=O)N1CCC[C@H]1[C@H](OC)[C@@H](C)C(=O)N[C@@H](Cc1c[nH]c2ccccc12)C(=O)O)OC)N(C)C(=O)[C@@H](NC(=O)[C@H](C(C)C)N(C)CCCCCCN1C(=O)CC(SC[C@H](N)C(=O)O)C1=O)C(C)C` (stereo partly drawn) [Example 75, N-[6-(3-{[(2R)-2-Amino-2-carboxyethyl]sulphanyl}-2,5-dioxopyrrolidin-1-yl)hexyl]-N-methyl-L-valyl-N-[(3R,4S,5S)-1-{(2S)-2-[(1R,2R)-3-{[(1S)-1-carboxy-2-(1H-indol-3-yl)ethyl]amino}-1-methoxy-2-methyl-3-oxopropyl]pyrrolidin-1-yl}-3-methoxy-5-methyl-1-oxoheptan-4-yl]-N-methyl-L-valinamide] (X2-V[Dil][Dolaproine]W-OH) were 107%, 25%, 0.1 ×10⁻⁶ cm/s and 0.4 ×10⁻⁶ cm/s.
Taken in the same sequence, the figures for `CC[C@H](C)[C@@H]([C@@H](CC(=O)N1CCC[C@H]1[C@H](OC)[C@@H](C)C(=O)N[C@@H](Cc1c[nH]c2ccccc12)C(=O)NCc1ccccc1)OC)N(C)C(=O)[C@@H](NC(=O)[C@H](C(C)C)N(C)CCCC(=O)NNC(=O)CCCCCN1C(=O)CC(SC[C@H](N)C(=O)O)C1=O)C(C)C` (stereo partly drawn) [Example 77, N-(4-{2-[6-(3-{[(2R)-2-Amino-2-carboxyethyl]sulphanyl}-2,5-dioxopyrrolidin-1-yl)hexanoyl]hydrazino}-4-oxobutyl)-N-methyl-L-valyl-N-[(3R,4S,5S)-1-{(2S)-2-[(1R,2R)-3-{[(2S)-1-(benzylamino)-3-(1H-indol-3-yl)-1-oxopropan-2-yl]amino}-1-methoxy-2-methyl-3-oxopropyl]pyrrolidin-1-yl}-3-methoxy-5-methyl-1-oxoheptan-4-yl]-N-methyl-L-valinamide] were 111%, 45%, 0.7 ×10⁻⁶ cm/s and 0.2 ×10⁻⁶ cm/s.
In the same order, the values of `CC[C@H](C)[C@@H]([C@@H](CC(=O)N1CCC[C@H]1[C@H](OC)[C@@H](C)C(=O)N[C@@H](Cc1c[nH]c2ccccc12)C(N)=O)OC)N(C)C(=O)[C@@H](NC(=O)[C@H](C(C)C)N(C)CCCCCCN1C(=O)CC(SC[C@H](N)C(=O)O)C1=O)C(C)C` (stereo partly drawn) [Example 74, N-[6-(3-{[(2R)-2-Amino-2-carboxyethyl]sulphanyl}-2,5-dioxopyrrolidin-1-yl)hexyl]-N-methyl-L-valyl-N-[(3R,4S,5S)-1-{(2S)-2-[(1R,2R)-3-{[(2S)-1-amino-3-(1H-indol-3-yl)-1-oxopropan-2-yl]amino}-1-methoxy-2-methyl-3-oxopropyl]pyrrolidin-1-yl}-3-methoxy-5-methyl-1-oxoheptan-4-yl]-N-methyl-L-valinamide] (X2-V[Dil][Dolaproine]W-NH2) are 117%, 64%, 0.5 ×10⁻⁶ cm/s and 0.36 ×10⁻⁶ cm/s.
